Literature values, collected in paper PMC6376154 (International Journal for Parasitology: Drugs and Drug …, 2019).
Where two headings read alike, the source gives them in different places.

Tested on: P. falciparum 3D7 asexual blood stage
Conditions: cited from earlier work
[1] = ChEMBL-NTD value per source (GNF, GSK, StJude), several values in a cell follow the order of the sources, read-out: CHEMBL EC50
[2] = MMV Malaria Box data sheet (supplement mmc2.xls), ref MMV data sheet
[3] = MMV Malaria Box data sheet (supplement mmc2.xls), ref MMV data sheet, read-out: EC50_nM
[4] = value(s) per source (GSK, GNF, StJude), separated by semicolon, ref ChEMBL-NTD, read-out: CHEMBL EC50
[5] = MMV Malaria Box data sheet, ref MMV data sheets
[6] = MMV Malaria Box data sheet, ref MMV data sheets, read-out: EC50_nM
[7] = source GNF, ref ChEMBL_NTD, read-out: CHEMBL EC50
[8] = MMV Malaria Box sheet, ref MMV data sheets
[9] = MMV Malaria Box sheet, ref MMV data sheets, read-out: EC50_nM
[10] = source GSK, ref ChEMBL_NTD, read-out: CHEMBL EC50

## CCOc1ccc(Nc2ccnc3cc(Cl)ccc23)cc1 [MMV007285]
[1]
  EC50: 956 nM

## CCc1ccc(Nc2cc(C)nc3nc(C)nn23)cc1 [MMV007374]
[2]
  percent_inh @ 2 uM: 81%
[3]
  EC50: 4000 nM
[4]
  EC50: 574 nM

## COc1ccc(-c2nc3cc(Cc4ccc5[nH]c(-c6ccc(OC)cc6)nc5c4)ccc3[nH]2)cc1 [MMV007384]
[5]
  percent_inh @ 5 uM: 98%
[6]
  EC50: 176 nM
[7]
  EC50: 234 nM

## Cc1ccccc1OCCSc1nc2ccc(NC(=O)c3cccs3)cc2s1 [MMV007396]
[1]
  EC50: 497 nM

## O=C(NCc1ccco1)C1CCN(S(=O)(=O)c2ccc(Br)cc2)CC1 [MMV007430]
[2]
  percent_inh @ 5 uM: 93%
[3]
  EC50: 939 nM
[4]
  EC50: 362 nM

## COc1cc2c3cc1Oc1c(OC)c(OC)cc4c1C(Cc1ccc(O)c(c1)Oc1ccc(cc1)CC3N(C)CC2)N(C)CC4 (stereo not shown) [MMV007474]
[1]
  EC50: 997 nM

## COc1ccc(CCNC(=O)c2cc(S(=O)(=O)N3CC(C)CC(C)C3)ccc2Sc2ccc(F)cc2)cc1OC (stereo not shown) [MMV007557]
[8]
  percent_inh @ 5 uM: 97%
[9]
  EC50: 632 nM
[7]
  EC50: 1050 nM

## Cc1ccc(Cn2c(N3CCC(C(=O)NCc4cccs4)CC3)nc3ccccc32)cc1 [MMV007564]
[5]
  percent_inh @ 5 uM: 73%
[6]
  EC50: 947 nM
[7]
  EC50: 529 nM
[10]
  EC50: 748 nM

## Cc1ccc(CSCc2ccc(C(=O)NC3CC3)o2)cc1 [MMV007571]
[2]
  percent_inh @ 5 uM: 97%
[3]
  EC50: 635 nM
[4]
  EC50: 418 nM

## O=C(Nc1ccc(C23CC4CC(CC(c5ccccc5)(C4)C2)C3)cc1)c1cccs1 [MMV007574]
[8]
  percent_inh @ 5 uM: 96%
[9]
  EC50: 826 nM
[7]
  EC50: 645 nM

## Cc1ccccc1OCCSc1nc2ccc(NC(=O)c3ccccc3)cc2s1 [MMV007577]
[8]
  percent_inh @ 5 uM: 93%
[9]
  EC50: 1120 nM
[7]
  EC50: 9760 nM

## COc1ccc(C(=O)C(CCC(CNC(C)(C)C)C(=O)c2ccc(OC)cc2)CNC(C)(C)C)cc1 (stereo not shown) [MMV007591]
[1]
  EC50: 1120 nM

## CC(=O)NCCc1nc2ccccc2n1Cc1ccc(C(C)C)cc1 [MMV007617]
[2]
  percent_inh @ 5 uM: 97%
[3]
  EC50: 1790 nM
[4]
  EC50: 764 nM

## Cc1ccc(C)c(-c2csc(Nc3ccc(C)c(C)c3)n2)c1 [MMV007654]
[1]
  EC50: 493 nM

## CCCCCCOC(=O)C1=C(C)NC(=O)NC1c1ccccc1F (stereo not shown) [MMV007686]
[5]
  percent_inh @ 5 uM: 95%
[6]
  EC50: 106 nM
[7]
  EC50: 6760 nM

## COc1ccc(C(C)=O)cc1N1C(=O)C2C(C1=O)C1(c3ccccc3)C(=O)C2(c2ccccc2)C(c2ccc(C)cc2)=C1c1ccc(C)cc1 (stereo not shown) [MMV007695]
[5]
  percent_inh @ 5 uM: 96%
[6]
  EC50: 179 nM
[7]
  EC50: 2460 nM

## CCCCc1c(CCC)c(=N)c2ccccc2n1C [MMV007764]
[1]
  EC50: 311 nM

## CCOc1ccccc1NC(=O)CN1CCN(C(=O)c2ccco2)CC1 [MMV007791]
[8]
  percent_inh @ 5 uM: 83%
[7]
  EC50: 5460 nM

## COc1nc(Nc2ccc(C(C)C)cc2)nc(OC)n1 [MMV007808]
[2]
  percent_inh @ 5 uM: 88%
[3]
  EC50: 1140 nM
[4]
  EC50: 677 nM

## COc1ccc2c(c1)OC(O)(C(F)(F)C(F)(F)F)CC2=O (stereo not shown) [MMV007839]
[6]
  EC50: 283 nM
[7]
  EC50: 442 nM

## COc1ccc2nc(C)cc(Nc3ccc(Cl)cc3)c2c1 [MMV007875]
[8]
  percent_inh @ 2 uM: 95%
[9]
  EC50: 2000 nM
[7]
  EC50: 1230 nM
[10]
  EC50: 946 nM

## CCCCN(CCCC)S(=O)(=O)c1ccc(NC(=O)c2ccco2)cc1 [MMV007881]
[8]
  percent_inh @ 5 uM: 78%
[7]
  EC50: 1420 nM

## CCCCOc1ccc(C(=O)Nc2cc(C)on2)cc1 [MMV007906]
[2]
  percent_inh @ 5 uM: 73%
[4]
  EC50: 3160 nM

## Cc1ccc(Nc2nc(-c3ccccn3)cs2)cc1 [MMV007907]
[5]
  percent_inh @ 5 uM: 79%
[6]
  EC50: 350 nM
[7]
  EC50: 407 nM

## O=c1nc(C=Cc2ccc(Cl)cc2)oc2ccccc12 [MMV007977]
[2]
  percent_inh @ 5 uM: 76%
[3]
  EC50: 995 nM

## CCOc1ccc(CCNC(=O)c2cccs2)cc1OCC [MMV007978]
[8]
  percent_inh @ 5 uM: 95%
[7]
  EC50: 890 nM

## CN1CCN(c2c3c(c(C#N)c4nc5ccccc5n24)CCC3)CC1 [MMV008127]
[2]
  percent_inh @ 2 uM: 42%
[3]
  EC50: 4000 nM
[4]
  EC50: 1180 nM

## O=C(O)C1Cc2c([nH]c3ccccc23)C(c2ccc(Cl)cc2Cl)N1 (stereo not shown) [MMV008138]
[6]
  EC50: 350 nM
[7]
  EC50: 1020 nM
[10]
  EC50: 954 nM

## Cc1c(C)n(Cc2ccc(F)cc2)c2ccc(C(=O)NCc3ccco3)cc12 [MMV008149]
[2]
  percent_inh @ 5 uM: 52%
[4]
  EC50: 78.2 nM

## CN1C=C(c2ccc3ccccc3n2)C(c2c[nH]c3ccccc23)c2ccccc21 (stereo not shown) [MMV008160]
[1]
  EC50: 1140 nM

## COc1cc(OC)cc(N2C(=O)N(Cc3ccc(C(C)(C)C)cc3)c3ccccc3S2(=O)=O)c1 [MMV008173]
[8]
  percent_inh @ 5 uM: 97%
[9]
  EC50: 1430 nM
[7]
  EC50: 3750 nM

## Oc1c2c(nc3cc(-c4ccccc4)nn13)CCCC2 [MMV008270]
[2]
  percent_inh @ 5 uM: 77%
[4]
  EC50: 1930 nM

## CCOC(=O)c1cnc2c(C)cc(C)cc2c1Nc1ccc(OC)c(OC)c1 [MMV008294]
[5]
  percent_inh @ 5 uM: 96%
[6]
  EC50: 232 nM
[7]
  EC50: 1780 nM

## CCCc1c(CC)c(=N)c2ccccc2n1C [MMV008416]
[5]
  percent_inh @ 5 uM: 69%
[6]
  EC50: 242 nM
[7]
  EC50: 762 nM

## COc1ccc(C2C(C(=O)Nc3cccc(OC)c3)c3ccccc3C(=O)N2C2CCCCC2)cc1 (stereo not shown) [MMV008455]
[8]
  percent_inh @ 5 uM: 97%
[9]
  EC50: 1180 nM
[7]
  EC50: 1110 nM

## CCN1CCN(c2c(C(=O)c3ccccc3)cnc3cc(OC)c(OC)cc23)CC1 [MMV008474]
[8]
  percent_inh @ 5 uM: 59%
[7]
  EC50: 3020 nM

## CCCn1c(=N)c(C(=O)NC2CCCCC2)cc2c(=O)n3cccc(C)c3nc21 [MMV008829]
[1]
  EC50: 460 nM

## CCOc1cc2c(cc1OCC)C(c1cc(OC)c(O)cc1Cl)NCC2 (stereo not shown) [MMV008956]
[5]
  percent_inh @ 5 uM: 98%
[6]
  EC50: 370 nM
[7]
  EC50: 362 nM
[10]
  EC50: 748 nM

## O=C(CCc1ccccc1)c1ccccc1OCC(O)CN1CCCCC1 (stereo not shown) [MMV009015]
[1]
  EC50: 881 nM

## CCN(CC)c1ccc(NC(=O)c2cccs2)cc1 [MMV009060]
[2]
  percent_inh @ 5 uM: 88%
[4]
  EC50: 414 nM

## OC(CNC1CCCCC1)Cn1c2ccccc2c2ccccc21 (stereo not shown) [MMV009063]
[5]
  percent_inh @ 5 uM: 93%
[6]
  EC50: 293 nM
[7]
  EC50: 483 nM
[10]
  EC50: 991 nM

## O=C1c2ccc3c4c(ccc(c24)C(=O)N1CCCCO)C(=O)N(CCCCO)C3=O [MMV009085]
[1]
  EC50: 354 nM

## CCN(CC)S(=O)(=O)c1ccc(-c2csc(Nc3ccc(C)c(C)c3)n2)cc1 [MMV009108]
[2]
  percent_inh @ 5 uM: 97%
[3]
  EC50: 641 nM
[4]
  EC50: 2100 nM

## CC1CCN(Cc2c(O)ccc3cc(-c4nc5ccccc5s4)c(=O)oc23)CC1 [MMV009127]
[8]
  percent_inh @ 5 uM: 91%
[9]
  EC50: 1130 nM
[7]
  EC50: 12500 nM

## Cc1cc(Nc2ccc3ccccc3c2)n2ncnc2n1 [MMV011099]
[6]
  EC50: 242 nM
[10]
  EC50: 173 nM

## Cc1cc(Nc2ccc(Cl)cc2)n2nc(C(F)(F)F)nc2n1 [MMV011256]
[6]
  EC50: 212 nM
[10]
  EC50: 117 nM

## Cc1cc(C)cc(Nc2cc(C)nc3nc(C(F)(F)F)nn23)c1 [MMV011259]
[6]
  EC50: 85.7 nM

## CC(C)(C)c1ccc(C2CC3=Nc4ccccc4N(C(=O)c4ccccc4Cl)C(c4ccc(F)cc4)C3=C(O)C2)cc1 (stereo not shown) [MMV011436]
[1]
  EC50: 2630 nM

## COC(=O)c1ccc(C2C3=C(O)CC(c4ccc(F)cc4)CC3=Nc3ccccc3N2C(=O)c2ccccc2)cc1 (stereo not shown) [MMV011438]
[1]
  EC50: 332 nM

## COc1ccc(C(=O)Nc2nonc2-c2ccc(OC)c(OC)c2)cc1Cl [MMV011567]
[5]
  percent_inh @ 5 uM: 92%
[6]
  EC50: 516 nM
[7]
  EC50: 1780 nM
[10]
  EC50: 675 nM

## CCOC(=O)C1CCN(C(=O)CN2C(=O)c3ccccc3C2c2c[nH]c3ccccc23)CC1 (stereo not shown) [MMV011576]
[8]
  percent_inh @ 5 uM: 98%
[9]
  EC50: 1180 nM
[7]
  EC50: 519 nM

## Oc1ccccc1CN1CCN(C(c2ccccc2)c2ccccc2)CC1 [MMV011795]
[2]
  percent_inh @ 5 uM: 97%
[3]
  EC50: 611 nM

## Oc1ccc2ccccc2c1CNc1nc2ccccc2[nH]1 [MMV011832]
[1]
  EC50: 652 nM

## Nc1ccc(-c2nc3cc(Oc4ccc(Oc5ccc6[nH]c(-c7ccc(N)cc7)nc6c5)cc4)ccc3[nH]2)cc1 [MMV011895]
[1]
  EC50: 288 nM

## COc1cccc(Nc2nc(NCCO)c3ccccc3n2)c1 [MMV011944]
[3]
  EC50: 854 nM

## Cc1cc(NC(=O)c2ccc(-c3ccccc3)cc2)no1 [MMV018984]
[2]
  percent_inh @ 5 uM: 95%
[3]
  EC50: 693 nM
[4]
  EC50: 1020 nM

## COCCNCC(O)Cn1c2ccc(Cl)cc2c2cc(Cl)ccc21 (stereo not shown) [MMV019017]
[3]
  EC50: 1010 nM
[4]
  EC50: 52 nM

## COc1cccc(-c2nn(C)c3sc(C(=O)NCCN4CCN(c5ccccc5F)CC4)cc23)c1 [MMV019064]
[2]
  percent_inh @ 5 uM: 91%
[3]
  EC50: 1300 nM
[4]
  EC50: 955 nM

## COc1ccccc1CNC(=O)CCn1c(=O)[nH]c2ccsc2c1=O [MMV019066]
[5]
  percent_inh @ 5 uM: 67%
[6]
  EC50: 140 nM
[10]
  EC50: 1040 nM

## CCN1CCN(c2cc(C)c3cc(NC(=O)c4ccc(OC)c(OC)c4)ccc3n2)CC1 [MMV019074]
[2]
  percent_inh @ 5 uM: 99%
[4]
  EC50: 1030 nM

## Cc1cccc(Nc2nc(N)c3ccccc3n2)c1 [MMV019110]
[5]
  percent_inh @ 2 uM: 97%
[6]
  EC50: 400 nM
[10]
  EC50: 574 nM

## CCN(Cc1ccccc1)C1CCN(Cc2cc(Br)ccc2O)CC1 [MMV019127]
[2]
  percent_inh @ 5 uM: 97%
[3]
  EC50: 625 nM
[4]
  EC50: 823 nM

## COc1cccc(Nc2nc(N)c3ccccc3n2)c1 [MMV019199]
[1]
  EC50: 934 nM
